Target: T1, estrogen receptor (Homo sapiens, UniProt P03372)
T1 construct: endogenous in cells; host or cells: ECC-1 cells
T1 sequence (P03372 1-595): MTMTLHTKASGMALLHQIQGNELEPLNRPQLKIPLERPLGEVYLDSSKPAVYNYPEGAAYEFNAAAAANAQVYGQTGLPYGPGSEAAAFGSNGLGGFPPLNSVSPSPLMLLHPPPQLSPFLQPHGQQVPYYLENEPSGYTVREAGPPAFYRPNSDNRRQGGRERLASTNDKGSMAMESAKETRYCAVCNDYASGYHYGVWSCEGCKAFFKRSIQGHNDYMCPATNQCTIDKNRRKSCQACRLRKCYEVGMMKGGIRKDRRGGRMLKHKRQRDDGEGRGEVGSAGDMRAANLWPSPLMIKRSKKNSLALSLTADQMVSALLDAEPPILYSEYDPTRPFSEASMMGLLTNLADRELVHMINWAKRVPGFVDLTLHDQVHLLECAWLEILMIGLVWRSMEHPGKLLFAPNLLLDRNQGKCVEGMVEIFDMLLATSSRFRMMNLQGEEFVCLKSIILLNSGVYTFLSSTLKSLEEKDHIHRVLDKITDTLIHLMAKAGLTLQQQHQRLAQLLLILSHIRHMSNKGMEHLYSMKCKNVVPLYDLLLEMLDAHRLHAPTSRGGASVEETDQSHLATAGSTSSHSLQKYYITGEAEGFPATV
Assay: Alkaline phosphatase (AP) assay in ECC-1 cells, agonist mode (no E2) and antagonist mode (500 pM E2)
Assay type: cell-based
Conditions: 3 days, AP activity normalized to 500 pM E2 alone, agonist mode without E2, antagonist mode with 500 pM E2
Description: ECC-1 cells were trypsinized and resuspended in hormone-depleted media and plated at a density of 15 k cells per well into a 96-well plate for at least 4 hours. Cells were treated with test compounds in the absence of E2 (for agonist mode) or in the presence of 500 pM E2 (for antagonist mode) for 3 days and plates were subsequently frozen at −80° C. Thawed plates were incubated with a chromogenic substrate of AP, p-nitrophenyl phosphate (Thermo Fisher Scientific), for 40 minutes at 42° C., and absorbances were read at 405 nm. AP activity was normalized to the activity of 500 pM E2 alone.
The compound numbers correspond to the compound numbers of Table 1 and 2. Compounds having an activity designated as “+” provided estrogen receptor agonism having (i) at least 80% increase in the E2-normalized signal in the AP assay (agonist mode) and (ii) no more than 80% reduction in the E2-normalized signal in the AP assay (antagonist mode). Compounds having an activity designated as “++” provided estrogen receptor antagonism having (i) between 10% and 80% increase in the E2-normalized signal in the AP assay (agonist mode) and (ii) between 10% and 80% reduction in the E2-normalized signal in the AP assay (antagonist mode).

SMILES | Activity (estrogen receptor modulation, agonism and antagonism)
C[C@@H]1Cc2c([nH]c3ccccc23)[C@@H](c2cnc(C[C@@H]3CCN(CCC(F)F)C3)s2)N1CC(C)(C)F [Example I-51, 2-[[(3S)-1-(3,3-difluoropropyl)pyrrolidin-3-yl]methyl]-5-[(1S,3R)-2-(2-fluoro-2-methyl-propyl)-3-methyl-1,3,4,9-tetrahydropyrido[3,4-b]indol-1-yl]thiazole] | + (estrogen receptor agonism having (i) at least 80% increase in the E2-normalized signal in the AP assay (agonist mode) and (ii) no more than 80% reduction in the E2-normalized signal in the AP assay (antagonist mode))
C[C@@H]1Cc2c([nH]c3ccccc23)[C@@H](c2cnc(C[C@@H]3CCN(CCCF)C3)s2)N1CC(F)F [Example I-41, 5-[(1S,3R)-2-(2,2-difluoroethyl)-3-methyl-1,3,4,9-tetrahydropyrido[3,4-b]indol-1-yl]-2-[[(3S)-1-(3-fluoropropyl)pyrrolidin-3-yl]methyl]thiazole] | ++ (estrogen receptor antagonism having (i) between 10% and 80% increase in the E2-normalized signal in the AP assay (agonist mode) and (ii) between 10% and 80% reduction in the E2-normalized signal in the AP assay (antagonist mode))
C[C@@H]1Cc2c([nH]c3ccccc23)[C@@H](c2cc(F)c(CC3CN(CCCF)C3)s2)N1CC(C)(C)F [Example I-13, (1S,3R)-2-(2-fluoro-2-methylpropyl)-1-(4-fluoro-5-((1-(3-fluoropropyl)azetidin-3-yl)methyl)thiophen-2-yl)-3-methyl-2,3,4,9-tetrahydro-1H-pyrido[3,4-b]indole] | ++ (estrogen receptor antagonism having (i) between 10% and 80% increase in the E2-normalized signal in the AP assay (agonist mode) and (ii) between 10% and 80% reduction in the E2-normalized signal in the AP assay (antagonist mode))
C[C@@H]1Cc2c([nH]c3ccccc23)[C@@H](c2ccc(CC3CN(CCC(F)F)C3)s2)N1CC(C)(C)F [Example I-18, 1-(3,3-difluoropropyl)-3-({5-[(1S,3R)-2-(2-fluoro-2-methylpropyl)-3-methyl-1H,2H,3H,4H,9H-pyrido[3,4-b]indol-1-yl]thiophen-2-yl}methyl)azetidine] | ++ (estrogen receptor antagonism having (i) between 10% and 80% increase in the E2-normalized signal in the AP assay (agonist mode) and (ii) between 10% and 80% reduction in the E2-normalized signal in the AP assay (antagonist mode))
C[C@@H]1Cc2c([nH]c3ccccc23)[C@@H](c2ccc(CCCN3CC(CF)C3)s2)N1CC(C)(C)F [Example I-21, 1-(3-{5-[(1S,3R)-2-(2-fluoro-2-methylpropyl)-3-methyl-1H,2H,3H,4H,9H-pyrido[3,4-b]indol-1-yl]thiophen-2-yl}propyl)-3-(fluoromethyl)azetidine] | +++ (estrogen receptor antagonism (i) with pIC50 greater than 7.5 and at least a 10% reduction in the E2-normalized signal in the AP assay (antagonist mode); and no more than 10% increase in E2-normalized signal in the AP assay (agonist mode))
Cc1cc([C@@H]2c3[nH]c4ccccc4c3C[C@@H](C)N2CC(C)(C)F)sc1CC1CN(CCCF)C1 [Example I-9, (1S,3R)-2-(2-fluoro-2-methylpropyl)-1-(5-((1-(3-fluoropropyl)azetidin-3-yl)methyl)-4-methylthiophen-2-yl)-3-methyl-2,3,4,9-tetrahydro-1H-pyrido[3,4-b]indole] | ++ (estrogen receptor antagonism having (i) between 10% and 80% increase in the E2-normalized signal in the AP assay (agonist mode) and (ii) between 10% and 80% reduction in the E2-normalized signal in the AP assay (antagonist mode))
C[C@@H]1Cc2c([nH]c3ccccc23)[C@@H](c2cnc(CC3CN(CCCF)C3)s2)N1CC(F)F [Example I-29] | +++ (estrogen receptor antagonism (i) with pIC50 greater than 7.5 and at least a 10% reduction in the E2-normalized signal in the AP assay (antagonist mode); and no more than 10% increase in E2-normalized signal in the AP assay (agonist mode))
CCCN1CC(Cc2cnc([C@@H]3c4[nH]c5ccccc5c4C[C@@H](C)N3CC(C)(C)F)s2)C1 [Example I-3, 2-[(1S,3R)-2-(2-fluoro-2-methylpropyl)-3-methyl-1H,2H,3H,4H,9H-pyrido[3,4-b]indol-1-yl]-5-[(1-propylazetidin-3-yl)methyl]-1,3-thiazole] | + (estrogen receptor agonism having (i) at least 80% increase in the E2-normalized signal in the AP assay (agonist mode) and (ii) no more than 80% reduction in the E2-normalized signal in the AP assay (antagonist mode))
CCCN1CC(Cc2sc([C@@H]3c4[nH]c5ccccc5c4C[C@@H](C)N3CC(C)(C)F)cc2F)C1 [Example I-10, (1S,3R)-2-(2-fluoro-2-methylpropyl)-1-(4-fluoro-5-((1-propylazetidin-3-yl)methyl)thiophen-2-yl)-3-methyl-2,3,4,9-tetrahydro-1H-pyrido[3,4-b]indole] | ++ (estrogen receptor antagonism having (i) between 10% and 80% increase in the E2-normalized signal in the AP assay (agonist mode) and (ii) between 10% and 80% reduction in the E2-normalized signal in the AP assay (antagonist mode))
CCCN1CCC(c2ccc([C@@H]3c4[nH]c5ccccc5c4C[C@@H](C)N3CC(C)(C)F)s2)CC1 [Example I-70, (1S,3R)-2-(2-fluoro-2-methyl-propyl)-3-methyl-1-[5-(1-propyl-4-piperidyl)-2-thienyl]-1,3,4,9-tetrahydropyrido[3,4-b]indole] | + (estrogen receptor agonism having (i) at least 80% increase in the E2-normalized signal in the AP assay (agonist mode) and (ii) no more than 80% reduction in the E2-normalized signal in the AP assay (antagonist mode))
C[C@@H]1Cc2c([nH]c3ccccc23)[C@@H](c2ccc(CC3CN(CCC(F)(F)F)C3)s2)N1CC(C)(C)F [Example I-15, 3-({5-[(1S,3R)-2-(2-fluoro-2-methylpropyl)-3-methyl-1H,2H,3H,4H,9H-pyrido[3,4-b]indol-1-yl]thiophen-2-yl}methyl)-1-(3,3,3-trifluoropropyl)azetidine] | ++ (estrogen receptor antagonism having (i) between 10% and 80% increase in the E2-normalized signal in the AP assay (agonist mode) and (ii) between 10% and 80% reduction in the E2-normalized signal in the AP assay (antagonist mode))
C[C@@H]1Cc2c([nH]c3ccccc23)[C@@H](c2ccc(CC3CN(CCC4COC4)C3)s2)N1CC(F)(F)CO [Example I-59, 2,2-difluoro-3-((1S,3R)-3-methyl-1-(5-((1-(2-(oxetan-3-yl)ethyl)azetidin-3-yl)methyl)thiophen-2-yl)-1,3,4,9-tetrahydro-2H-pyrido[3,4-b]indol-2-yl)propan-1-ol] | + (estrogen receptor agonism having (i) at least 80% increase in the E2-normalized signal in the AP assay (agonist mode) and (ii) no more than 80% reduction in the E2-normalized signal in the AP assay (antagonist mode))
C[C@@H]1Cc2c([nH]c3ccccc23)[C@@H](c2ccc(C3CCN(CCF)CC3)s2)N1CC(C)(C)F [Example I-68, (1S,3R)-1-[5-[1-(2-fluoroethyl)-4-piperidyl]-2-thienyl]-2-(2-fluoro-2-methyl-propyl)-3-methyl-1,3,4,9-tetrahydropyrido[3,4-b]indole] | ++ (estrogen receptor antagonism having (i) between 10% and 80% increase in the E2-normalized signal in the AP assay (agonist mode) and (ii) between 10% and 80% reduction in the E2-normalized signal in the AP assay (antagonist mode))
C[C@@H]1Cc2c([nH]c3ccccc23)[C@@H](c2cnc(CC3CN(CCCF)C3)s2)N1CC(C)(C)F [Example I-14, 5-[(1S,3R)-2-(2-fluoro-2-methylpropyl)-3-methyl-1H,2H,3H,4H,9H-pyrido[3,4-b]indol-1-yl]-2-{[1-(3-fluoropropyl)azetidin-3-yl]methyl}-1,3-thiazole] | ++ (estrogen receptor antagonism having (i) between 10% and 80% increase in the E2-normalized signal in the AP assay (agonist mode) and (ii) between 10% and 80% reduction in the E2-normalized signal in the AP assay (antagonist mode))
